Test results: article PMC10545747, “Development of cyclopeptide inhibitors of cGAS targeting protein-DNA interaction and phase separation” (Nature Communications, 2023)
Several values for one entry are separate records, joined by “and”; a condition that tells them apart may be missing. Equal values may be shown once. Read-outs that look alike come from different tables or passages of the source. Square brackets hold non-standard residues; d marks the D form. Peptide text beside a SMILES is read from it. Orn = NCCC[C@H](N)C(=O)O

Target: T1, recombinant human cGAS enzyme (hcGAS-ΔN, residues 147–522) (Homo sapiens, UniProt Q8N884)
T1 construct: N-terminally truncated human cGAS (hcGAS-ΔN, residues 147–522); 6xHis-SUMO (N, cleaved yes); made in house; host or cells: Escherichia coli BL21 (DE3)
T1 sequence (Q8N884 147-522, stated change not applied): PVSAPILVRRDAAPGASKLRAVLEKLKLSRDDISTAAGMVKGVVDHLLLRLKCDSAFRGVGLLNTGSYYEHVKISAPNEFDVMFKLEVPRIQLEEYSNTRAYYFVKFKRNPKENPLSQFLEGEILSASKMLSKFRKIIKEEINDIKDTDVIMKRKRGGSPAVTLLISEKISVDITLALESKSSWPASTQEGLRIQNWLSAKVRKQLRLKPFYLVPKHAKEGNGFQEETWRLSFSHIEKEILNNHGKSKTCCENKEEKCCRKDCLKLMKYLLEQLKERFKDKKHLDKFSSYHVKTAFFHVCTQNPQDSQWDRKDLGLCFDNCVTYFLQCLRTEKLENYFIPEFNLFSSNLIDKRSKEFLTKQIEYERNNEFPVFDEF
Assay: RNA-based fluorescent biosensor assay of cGAS activity (2',3'-cGAMP formation), in vitro screening
Assay type: biochemical
Settings: for Remaining activity (%), Fig. 1a source data / remaining activity at 20 µM: 20 μM, replicate values; for remaining activity at 20 µM: read-out: Remaining activity (%), Fig. 1a source data
Description: To screen direct cGAS inhibitors targeting protein-DNA interface from our developed focused library of macrocyclic peptides, we applied an RNA-based fluorescent biosensor for 2’,3’-cGAMP to detect cGAS activity in vitro (Supplementary Fig. 1a)[49]. The formation of 2’,3’-cGAMP from ATP and GTP was catalyzed by recombinant human cGAS enzyme (hcGAS-ΔN, residues 147–522, Supplementary Fig. 1b) in the presence of ISD (interferon stimulatory DNA, a 45-bp dsDNA), which was readily quantified by the RNA-based fluorescent biosensor and was further confirmed by ion exchange chromatography (Supplementary Fig. 1c). […] Subsequently, a total of 90 macrocyclic peptides were screened at a concentration of 20 μM (Fig. 1a and Supplementary Fig. 1e), and 4 hits (XQ2, XQ8, XQ19, and XQ46) were obtained for further testing at a cut-off of 40% inhibition (Supplementary Table 1). To evaluate the inhibitory effect of the hits against cGAS in cells, we employed real-time quantitative PCR (qPCR) to examine mRNA levels of IFNΒ1 in THP1 cells. The reported cGAS inhibitor RU.521 was used as the positive control, and the non-active peptide XQ28 in the screening assay was used as the negative control. […] The inhibition of cGAS by these hits was further confirmed in the reporter cell line THP1-Lucia ISG (Invivogen) that expresses secreted luciferase induced by an IRF3-inducible ISG54 promoter (Fig. 1c). The discrepancy between the inhibitory effect of the hits in protein and cellular assays may be attributed to their different cellular permeability.
The high-throughput screening (HTS) experiments of cGAS activity are based on the method previously described. To initiate the enzyme reaction, ISD was added to the reaction solution (40 mM Tris-HCl, pH 7.5, 100 mM NaCl, 10 mM MgCl2) containing hcGAS-ΔN, ATP (Sangon Biotech, Cat# A600311) and GTP (Sangon Biotech, Cat# A620332) in a total volume of 20 ul with the final concentration of 0.5 μM, 1.5 μM, 1 mM, 1 mM, respectively, and incubated for 2 h at 37 °C. For HTS experiments, compounds were added to the same reaction conditions as described above with the final concentration of 20 μM. Z’ factors were calculated from three replicates in the 384-well plate.

[1] = peptides screened at 20 μM, Supplementary Table 1 / Fig. S5b, read-out: Inhibition %

Row | SMILES | Remaining activity (%), Fig. 1a source data | remaining activity at 20 µM | inhibition at 20 µM [1] | inhibition at 20 µM
1 | CC(C)C[C@@H]1NC(=O)[C@H](CCCN)NC(=O)[C@H](C(C)C)NC(=O)[C@@H]2CCCN2C(=O)[C@@H](Cc2ccccc2)NC(=O)[C@H](CC(C)C)NC(=O)[C@H](CCCN)NC(=O)[C@H](C(C)C)NC(=O)[C@@H]2CCCN2C(=O)[C@@H](Cc2ccccc2)NC1=O [XQ39, Cyclo (LfPV(Orn)LfPV(Orn))] (cyclo(V[Orn]L[dF]PV[Orn]L[dF]P)) | 96.3833% and 97.8523% | 97.2% | 3% | 
2 | CC(C)C[C@@H]1NC(=O)[C@H](CCCNC(=N)N)NC(=O)[C@H]([C@@H](C)O)NC(=O)[C@@H]2CCCN2C(=O)[C@@H](C)NC(=O)[C@H](CC(C)C)NC(=O)[C@H](CCCNC(=N)N)NC(=O)[C@H]([C@@H](C)O)NC(=O)[C@@H]2CCCN2C(=O)[C@@H](C)NC1=O [XQ40, Cyclo (LaPTRLaPTR)] (cyclo(L[dA]PTRL[dA]PTR)) | 115.337% and 116.119% | 117% | 0% | 
3 | CC(C)C[C@@H]1NC(=O)[C@H](CCCNC(=N)N)NC(=O)[C@H](C(C)C)NC(=O)[C@@H]2CCCN2C(=O)[C@@H](CC(C)C)NC(=O)[C@H](C)NC(=O)[C@H](CCCNC(=N)N)NC(=O)[C@H](C(C)C)NC(=O)[C@@H]2CCCN2C(=O)[C@@H](Cc2ccccc2)NC1=O [XQ49, Cyclo (AlPVRLfPVR)] (cyclo(A[dL]PVRL[dF]PVR)) |  |  |  | 0%
4 | CC(C)C[C@@H]1NC(=O)[C@H](CCCNC(=N)N)NC(=O)[C@H](C(C)C)NC(=O)[C@@H]2CCCN2C(=O)[C@@H](Cc2ccccc2)NC(=O)[C@H](C)NC(=O)[C@H](CCCNC(=N)N)NC(=O)[C@H](C(C)C)NC(=O)[C@@H]2CCCN2C(=O)[C@@H](CC(C)C)NC1=O [XQ53, Cyclo (LlPVRAfPVR)] (cyclo(A[dF]PVRL[dL]PVR)) |  |  | 0% | 
5 | CC(C)C[C@@H]1NC(=O)[C@H](C)NC(=O)[C@H](C(C)C)NC(=O)[C@@H]2CCCN2C(=O)[C@@H](CCCNC(=N)N)NC(=O)[C@H](CC(C)C)NC(=O)[C@H](CCCNC(=N)N)NC(=O)[C@H](C(C)C)NC(=O)[C@@H]2CCCN2C(=O)[C@@H](Cc2ccccc2)NC1=O [XQ55, Cyclo (LrPVALfPVR)] (cyclo(AL[dF]PVRL[dR]PV)) |  |  | 0% | 
6 | CC(C)C[C@@H]1NC(=O)[C@H](C)NC(=O)[C@H](C(C)C)NC(=O)[C@@H]2CCCN2C(=O)[C@@H](Cc2ccccc2)NC(=O)[C@H](CC(C)C)NC(=O)[C@H](CCCNC(=N)N)NC(=O)[C@H](C(C)C)NC(=O)[C@@H]2CCCN2C(=O)[C@@H](CCCNC(=N)N)NC1=O [XQ56, Cyclo (LrPVRLfPVA)] (cyclo(AL[dR]PVRL[dF]PV)) |  |  | 0% | 
7 | CC(C)C[C@@H]1NC(=O)[C@H](CCCNC(=N)N)NC(=O)[C@H](C(C)C)NC(=O)[C@H](C)NC(=O)[C@@H](Cc2ccccc2)NC(=O)[C@H](C)NC(=O)[C@H](CC(=O)O)NC(=O)[C@H](C(C)C)NC(=O)[C@@H]2CCCN2C(=O)[C@@H](Cc2ccccc2)NC1=O [XQ57, Cyclo (LfPVDAfAVR)] (cyclo(AVRL[dF]PVDA[dF])) |  |  | 0% | 
8 | CC(C)C[C@@H]1NC(=O)[C@H](CC(=O)O)NC(=O)[C@H](C(C)C)NC(=O)[C@@H]2CCCN2C(=O)[C@@H](Cc2ccccc2)NC(=O)[C@H](C)NC(=O)[C@H](CCCNC(=N)N)NC(=O)[C@H](C)NC(=O)[C@@H]2CCCN2C(=O)[C@@H](Cc2ccccc2)NC1=O [XQ58, Cyclo (AfPVDLfPAR)] (cyclo(ARA[dF]PVDL[dF]P)) |  |  | 0% | 
9 | CC(C)C[C@@H]1NC(=O)[C@H](CC(=O)O)NC(=O)[C@H]([C@@H](C)O)NC(=O)[C@@H]2CCCN2C(=O)[C@@H](Cc2ccccc2)NC(=O)[C@H](CC(C)C)NC(=O)[C@H](CCCNC(=N)N)NC(=O)[C@H]([C@@H](C)O)NC(=O)[C@H](C)NC(=O)[C@@H](Cc2ccccc2)NC1=O [XQ59, Cyclo (LfPTDLfATR)] (cyclo(ATRL[dF]PTDL[dF])) |  |  | 0% | 

Continued, in another order:

Row | Remaining activity (%), Fig. 1a source data | remaining activity at 20 µM | inhibition at 20 µM [1] | SMILES | inhibition at 20 µM
10 | 87.273% and 87.6684% | 86% | 13% | CC(C)C[C@@H]1NC(=O)[C@H](CCCNC(=N)N)NC(=O)[C@H]([C@@H](C)O)NC(=O)[C@@H]2CCCN2C(=O)[C@@H](Cc2ccccc2)NC(=O)[C@H](CC(C)C)NC(=O)[C@H](CCCNC(=N)N)NC(=O)[C@H](C(C)C)NC(=O)[C@@H]2CCCN2C(=O)[C@@H](Cc2ccccc2)NC1=O [XQ42, Cyclo (LfPTRLfPVR)] (cyclo(L[dF]PTRL[dF]PVR)) | 
11 | 77.1619% and 77.2258% | 76.3% | 23% | CC(C)C[C@@H]1NC(=O)[C@H](C)NC(=O)[C@H](CCCNC(=N)N)NC(=O)[C@@H]2CCCN2C(=O)[C@@H](Cc2ccccc2)NC(=O)[C@H](CC(C)C)NC(=O)[C@H](CCCNC(=N)N)NC(=O)[C@H](C(C)C)NC(=O)[C@@H]2CCCN2C(=O)[C@@H](Cc2ccccc2)NC1=O [XQ43, Cyclo (LfPRALfPVR)] (cyclo(AL[dF]PVRL[dF]PR)) | 
12 | 107.77% and 107.519% | 107% | 0% | CC(C)C[C@@H]1NC(=O)[C@H](C)NC(=O)[C@H](C(C)C)NC(=O)[C@@H]2CCCN2C(=O)[C@@H](Cc2ccccc2)NC(=O)[C@H](CCCNC(=N)N)NC(=O)[C@H](CCCNC(=N)N)NC(=O)[C@H](C(C)C)NC(=O)[C@@H]2CCCN2C(=O)[C@@H](Cc2ccccc2)NC1=O [XQ44, Cyclo (RfPVALfPVR)] (cyclo(AL[dF]PVRR[dF]PV)) | 
13 | 110.841% and 109.702% | 115% | 0% | CC(C)C[C@@H]1NC(=O)[C@H](C)NC(=O)[C@H](C(C)C)NC(=O)[C@@H]2CCCN2C(=O)[C@@H](Cc2ccccc2)NC(=O)[C@H](CC(C)C)NC(=O)[C@H](CCCNC(=N)N)NC(=O)[C@H](C(C)C)NC(=O)[C@H](CCCNC(=N)N)NC(=O)[C@@H](Cc2ccccc2)NC1=O [XQ45, Cyclo (LfRVRLfPVA)] (cyclo(AL[dF]RVRL[dF]PV)) | 
14 |  |  | 0% | CC(C)C[C@@H]1NC(=O)[C@H](CCCNC(=N)N)NC(=O)[C@H](CC(C)C)NC(=O)[C@@H]2CCCN2C(=O)[C@@H](Cc2ccccc2)NC(=O)[C@H](C)NC(=O)[C@H](CCCNC(=N)N)NC(=O)[C@H](C(C)C)NC(=O)[C@@H]2CCCN2C(=O)[C@@H](Cc2ccccc2)NC1=O [XQ47, Cyclo (AfPLRLfPVR)] (cyclo(A[dF]PLRL[dF]PVR)) | 
15 |  |  | 0% | CC(C)C[C@@H]1NC(=O)[C@H](CCCNC(=N)N)NC(=O)[C@H](C(C)C)NC(=O)[C@H](CC(C)C)NC(=O)[C@@H](Cc2ccccc2)NC(=O)[C@H](C)NC(=O)[C@H](CCCNC(=N)N)NC(=O)[C@H](C(C)C)NC(=O)[C@@H]2CCCN2C(=O)[C@@H](Cc2ccccc2)NC1=O [XQ48, Cyclo (AfLVRLfPVR)] (cyclo(A[dF]LVRL[dF]PVR)) | 
16 |  |  | 0% | CC(C)C[C@@H]1NC(=O)[C@H](CCCNC(=N)N)NC(=O)[C@H](C(C)C)NC(=O)[C@@H]2CCCN2C(=O)[C@@H](Cc2ccccc2)NC(=O)[C@H](C)NC(=O)[C@H](CC(C)C)NC(=O)[C@H](C(C)C)NC(=O)[C@@H]2CCCN2C(=O)[C@@H](Cc2ccccc2)NC1=O [XQ50, Cyclo (LfPVLAfPVR)] (cyclo(A[dF]PVRL[dF]PVL)) | 
17 |  |  | 0% | CC(C)C[C@@H]1NC(=O)[C@H](CCCNC(=N)N)NC(=O)[C@H](C(C)C)NC(=O)[C@@H]2CCCN2C(=O)[C@@H](Cc2ccccc2)NC(=O)[C@H](C)NC(=O)[C@H](CCCNC(=N)N)NC(=O)[C@H](CC(C)C)NC(=O)[C@@H]2CCCN2C(=O)[C@@H](Cc2ccccc2)NC1=O [XQ51, Cyclo (LfPLRAfPVR)] (cyclo(A[dF]PVRL[dF]PLR)) | 
18 |  |  | 0% | CC(C)C[C@@H]1NC(=O)[C@H](CCCNC(=N)N)NC(=O)[C@H](C(C)C)NC(=O)[C@@H]2CCCN2C(=O)[C@@H](Cc2ccccc2)NC(=O)[C@H](C)NC(=O)[C@H](CCCNC(=N)N)NC(=O)[C@H](C(C)C)NC(=O)[C@H](CC(C)C)NC(=O)[C@@H](Cc2ccccc2)NC1=O [XQ52, Cyclo (LfLVRAfPVR)] (cyclo(A[dF]PVRL[dF]LVR)) | 
19 |  |  | 0% | CC(C)C[C@@H]1NC(=O)[C@H](CCCNC(=N)N)NC(=O)[C@H](C(C)C)NC(=O)[C@@H]2CCCN2C(=O)[C@@H](Cc2ccccc2)NC(=O)[C@H](CC(C)C)NC(=O)[C@H](CCCNC(=N)N)NC(=O)[C@H](CC(C)C)NC(=O)[C@@H]2CCCN2C(=O)[C@@H](Cc2ccccc2)NC1=O [XQ54, Cyclo (LfPLRLfPVR)] (cyclo(LRL[dF]PVRL[dF]P)) | 
